Data published in ChEMBL document CHEMBL4673350 (Bioorg Med Chem, 2021).
≈ marks a conversion by molar mass, not a printed value.

Tests used:
[1] = Inhibition of recombinant N-terminal His/MBP-tagged NDM-1 (unknown origin) expressed in Escherichia coli BL21 (DE3) measured immediately by spectrophotometry
[2] = test system: Escherichia coli DH5[alpha]; conditions: dose 32.0 mg/L
[3] = test system: Escherichia coli DH5[alpha]; experiment: Inhibition of Escherichia coli DH5alpha NDM-1 assessed as MIC of meropenem at 8 mg/L by CLSI based microdilution method
[4] = test system: Escherichia coli; experiment: microbe, parasite or virus in culture; conditions: DH5[alpha]
Description: Antibacterial activity against Escherichia coli DH5alpha assessed as MIC of meropenem at 32 mg/L by CLSI based broth microdilution method (Rvb < 0.25 mg/L)

| SMILES | IC50 [1] | MIC [2] | MIC [3] | MIC [4] |
| --- | --- | --- | --- | --- |
| C[C@H](CS)C(=O)N1CCC(CC(=O)O)CC1 | 19.8 µM | – | – | – |
| C[C@H](CS)C(=O)N1CCC(C(N)=O)CC1 | 11.1 µM | – | – | – |
| C[C@H](CS)C(=O)N1CCC[C@H](C(=O)O)C1 | 28.4 µM | – | – | – |
| O=C(O)CN(CCN(CC(=O)O)CC(=O)O)CC(=O)O [EDETIC ACID] | – | < 0.25 µg/mL | < 0.25 µg/mL | < 0.25 µg/mL |
| C[C@H](CS)C(=O)N1CCC(C(=O)O)CC1 | 4.9 µM | 2 µg/mL (≈ 8.65 µM) | 4 µg/mL | – |
| O=C(O)[C@H]1CCCN1C(=O)C(CS)CS | 75 µM | – | – | – |
| C[C@H](CS)C(=O)N1CCC(CC(N)=O)CC1 | 27.9 µM | – | – | – |

Next, values leading:

| IC50 [1] | MIC [2] | MIC [3] | MIC [4] | SMILES |
| --- | --- | --- | --- | --- |
| 20.4 µM | – | – | – | C[C@H](CS)C(=O)N1CCCCC[C@@H]1C(=O)O |
| > 300 µM | – | – | – | C[C@H](CS)C(=O)N1Cc2ccccc2C[C@@H]1C(=O)O |
| 6.9 µM | 2 µg/mL (≈ 8.65 µM) | 4 µg/mL | – | C[C@H](CS)C(=O)N1CCCC[C@@H]1C(=O)O |
| 21.8 µM | 4 µg/mL (≈ 18.4 µM) | – | – | C[C@H](CS)C(=O)N1CCC[C@@H]1C(=O)O [D-CAPTOPRIL] |
| 4.6 µM | 4 µg/mL (≈ 14.3 µM) | 8 µg/mL | – | C[C@H](CS)C(=O)N1CCc2ccccc2[C@@H]1C(=O)O |
